Assay results from ChEMBL document CHEMBL1133694, “Hydroxamic acid derivatives as potent peptide deformylase inhibitors and antibacterial agents” (J Med Chem, 2000).
Values after ≈ are worked out from the molar mass of the structure shown.

Experiments:
[1] = molecular target: T1, Peptide deformylase (Escherichia coli, UniProt Q9JN24); experiment: Inhibitory activity against isolated Escherichia coli peptidyl deformylase (PDF) enzyme containing iron.
T1 sequence (Q9JN24 whole entry): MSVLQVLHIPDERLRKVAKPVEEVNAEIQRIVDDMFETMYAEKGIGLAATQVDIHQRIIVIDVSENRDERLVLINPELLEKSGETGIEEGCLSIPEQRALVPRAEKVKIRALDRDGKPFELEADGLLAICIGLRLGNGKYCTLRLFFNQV

[2] = system: Moraxella catarrhalis; experiment: In vitro antibacterial activity against isolated Moraxella catarrhalis RA21; type: functional
[3] = system: Escherichia coli; experiment: In vitro antibacterial activity against isolated Escherichia coli DC2; type: functional
[4] = molecular target: T2, Interstitial collagenase (Homo sapiens, UniProt P03956); experiment: Inhibition of Matrix metalloprotease-1
T2 sequence (P03956 whole entry): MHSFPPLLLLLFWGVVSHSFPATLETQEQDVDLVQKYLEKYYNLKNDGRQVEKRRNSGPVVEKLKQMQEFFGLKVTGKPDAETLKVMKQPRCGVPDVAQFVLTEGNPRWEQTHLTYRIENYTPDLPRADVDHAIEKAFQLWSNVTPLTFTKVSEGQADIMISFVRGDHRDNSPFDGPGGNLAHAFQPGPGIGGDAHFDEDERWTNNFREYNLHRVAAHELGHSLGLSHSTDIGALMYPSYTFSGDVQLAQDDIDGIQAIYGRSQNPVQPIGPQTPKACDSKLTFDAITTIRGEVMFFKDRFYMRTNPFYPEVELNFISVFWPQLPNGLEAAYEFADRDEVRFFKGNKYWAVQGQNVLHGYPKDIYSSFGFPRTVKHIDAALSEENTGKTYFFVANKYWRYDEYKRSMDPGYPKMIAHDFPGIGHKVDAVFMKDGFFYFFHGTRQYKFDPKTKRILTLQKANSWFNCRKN

[5] = molecular target: Macrophage metalloelastase (Homo sapiens, UniProt P39900); experiment: Inhibition of human Matrix metalloprotease-12
Chain of Macrophage metalloelastase (P39900 whole entry): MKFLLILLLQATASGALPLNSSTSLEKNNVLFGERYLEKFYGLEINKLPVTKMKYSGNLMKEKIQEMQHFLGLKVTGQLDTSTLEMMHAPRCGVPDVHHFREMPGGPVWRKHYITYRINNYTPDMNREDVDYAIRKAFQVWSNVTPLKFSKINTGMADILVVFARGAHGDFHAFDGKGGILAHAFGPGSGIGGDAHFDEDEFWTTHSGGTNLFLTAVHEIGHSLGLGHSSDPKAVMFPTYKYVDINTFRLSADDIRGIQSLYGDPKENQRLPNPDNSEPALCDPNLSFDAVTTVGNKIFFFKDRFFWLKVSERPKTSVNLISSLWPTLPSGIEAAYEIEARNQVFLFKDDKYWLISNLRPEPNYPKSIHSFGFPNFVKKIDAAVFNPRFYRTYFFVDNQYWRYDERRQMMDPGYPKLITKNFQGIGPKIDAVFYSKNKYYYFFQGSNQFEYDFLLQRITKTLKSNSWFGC

[6] = molecular target: T3, Neprilysin (Rattus norvegicus, UniProt P07861); experiment: Inhibitory activity against neutral endopeptidase enzyme (NEP).
T3 sequence (P07861 whole entry): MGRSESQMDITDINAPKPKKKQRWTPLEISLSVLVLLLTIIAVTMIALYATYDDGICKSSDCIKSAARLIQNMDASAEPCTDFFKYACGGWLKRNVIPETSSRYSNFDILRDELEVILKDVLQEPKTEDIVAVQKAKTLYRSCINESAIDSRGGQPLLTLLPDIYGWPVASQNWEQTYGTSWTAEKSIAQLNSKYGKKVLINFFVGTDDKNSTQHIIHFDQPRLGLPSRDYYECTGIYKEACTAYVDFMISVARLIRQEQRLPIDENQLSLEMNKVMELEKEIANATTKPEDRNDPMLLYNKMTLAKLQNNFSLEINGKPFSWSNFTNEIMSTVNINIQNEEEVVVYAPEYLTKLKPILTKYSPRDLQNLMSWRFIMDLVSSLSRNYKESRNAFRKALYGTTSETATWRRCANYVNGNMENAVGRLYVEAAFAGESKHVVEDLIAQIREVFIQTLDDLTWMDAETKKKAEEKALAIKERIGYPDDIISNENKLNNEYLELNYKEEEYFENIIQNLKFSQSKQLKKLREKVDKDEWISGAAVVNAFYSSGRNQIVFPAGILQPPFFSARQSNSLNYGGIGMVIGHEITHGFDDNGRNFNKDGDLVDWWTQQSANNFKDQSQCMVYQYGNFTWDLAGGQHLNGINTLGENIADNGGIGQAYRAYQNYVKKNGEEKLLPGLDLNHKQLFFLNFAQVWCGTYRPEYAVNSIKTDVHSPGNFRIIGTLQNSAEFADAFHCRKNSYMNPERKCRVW

[7] = molecular target: Angiotensin-converting enzyme (Homo sapiens, UniProt P12821)
Chain of Angiotensin-converting enzyme (P12821 whole entry): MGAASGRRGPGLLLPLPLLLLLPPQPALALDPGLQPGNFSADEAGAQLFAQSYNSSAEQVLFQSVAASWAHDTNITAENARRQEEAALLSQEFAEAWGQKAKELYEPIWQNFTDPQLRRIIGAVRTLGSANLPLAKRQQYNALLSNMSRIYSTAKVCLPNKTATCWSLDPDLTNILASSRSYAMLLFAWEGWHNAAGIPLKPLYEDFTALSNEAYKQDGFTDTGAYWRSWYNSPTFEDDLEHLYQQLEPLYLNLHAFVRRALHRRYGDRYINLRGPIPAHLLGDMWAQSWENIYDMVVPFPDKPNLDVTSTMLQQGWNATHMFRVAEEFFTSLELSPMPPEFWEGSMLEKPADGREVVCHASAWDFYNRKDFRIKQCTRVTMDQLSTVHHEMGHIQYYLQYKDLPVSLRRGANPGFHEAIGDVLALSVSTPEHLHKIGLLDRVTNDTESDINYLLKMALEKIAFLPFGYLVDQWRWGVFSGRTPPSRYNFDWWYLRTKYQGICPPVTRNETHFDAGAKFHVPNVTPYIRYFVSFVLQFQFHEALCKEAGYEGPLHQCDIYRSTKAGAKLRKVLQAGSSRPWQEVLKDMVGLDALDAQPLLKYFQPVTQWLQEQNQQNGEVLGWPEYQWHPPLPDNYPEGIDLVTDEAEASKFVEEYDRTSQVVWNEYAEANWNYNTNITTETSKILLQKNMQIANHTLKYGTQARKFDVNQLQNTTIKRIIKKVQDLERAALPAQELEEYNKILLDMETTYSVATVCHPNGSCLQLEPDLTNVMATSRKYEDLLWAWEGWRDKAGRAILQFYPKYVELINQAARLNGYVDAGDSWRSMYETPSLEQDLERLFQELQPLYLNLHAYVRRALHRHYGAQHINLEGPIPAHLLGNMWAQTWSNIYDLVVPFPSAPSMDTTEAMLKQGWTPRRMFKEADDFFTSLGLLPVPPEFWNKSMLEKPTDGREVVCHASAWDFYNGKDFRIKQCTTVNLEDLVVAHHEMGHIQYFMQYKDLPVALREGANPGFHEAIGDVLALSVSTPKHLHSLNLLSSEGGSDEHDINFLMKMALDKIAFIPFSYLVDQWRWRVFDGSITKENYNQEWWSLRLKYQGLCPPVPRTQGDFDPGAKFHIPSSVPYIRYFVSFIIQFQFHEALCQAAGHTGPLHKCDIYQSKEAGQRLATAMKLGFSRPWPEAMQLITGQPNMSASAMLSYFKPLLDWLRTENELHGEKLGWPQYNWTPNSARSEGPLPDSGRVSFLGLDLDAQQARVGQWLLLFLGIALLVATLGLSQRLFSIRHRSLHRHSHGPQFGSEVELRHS

[8] = molecular target: Matrilysin (Homo sapiens, UniProt P09237); experiment: Inhibition of matrilysin, Matrix metalloprotease-7
Chain of Matrilysin (P09237 whole entry): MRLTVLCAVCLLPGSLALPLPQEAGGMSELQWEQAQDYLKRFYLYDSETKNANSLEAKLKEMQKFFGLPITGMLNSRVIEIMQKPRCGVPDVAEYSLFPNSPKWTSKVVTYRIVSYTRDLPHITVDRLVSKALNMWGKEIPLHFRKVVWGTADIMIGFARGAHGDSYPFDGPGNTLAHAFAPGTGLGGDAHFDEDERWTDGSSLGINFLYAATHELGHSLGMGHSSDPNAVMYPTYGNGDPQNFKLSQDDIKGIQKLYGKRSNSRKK

[9] = molecular target: Collagenase 3 (Homo sapiens, UniProt P45452); experiment: Inhibition of Matrix metalloprotease-13
[10] = molecular target: T4, Endothelin-converting enzyme 1 (Homo sapiens, UniProt P42892); experiment: Inhibitory activity against Endothelin-converting enzyme 1
T4 sequence (P42892 whole entry): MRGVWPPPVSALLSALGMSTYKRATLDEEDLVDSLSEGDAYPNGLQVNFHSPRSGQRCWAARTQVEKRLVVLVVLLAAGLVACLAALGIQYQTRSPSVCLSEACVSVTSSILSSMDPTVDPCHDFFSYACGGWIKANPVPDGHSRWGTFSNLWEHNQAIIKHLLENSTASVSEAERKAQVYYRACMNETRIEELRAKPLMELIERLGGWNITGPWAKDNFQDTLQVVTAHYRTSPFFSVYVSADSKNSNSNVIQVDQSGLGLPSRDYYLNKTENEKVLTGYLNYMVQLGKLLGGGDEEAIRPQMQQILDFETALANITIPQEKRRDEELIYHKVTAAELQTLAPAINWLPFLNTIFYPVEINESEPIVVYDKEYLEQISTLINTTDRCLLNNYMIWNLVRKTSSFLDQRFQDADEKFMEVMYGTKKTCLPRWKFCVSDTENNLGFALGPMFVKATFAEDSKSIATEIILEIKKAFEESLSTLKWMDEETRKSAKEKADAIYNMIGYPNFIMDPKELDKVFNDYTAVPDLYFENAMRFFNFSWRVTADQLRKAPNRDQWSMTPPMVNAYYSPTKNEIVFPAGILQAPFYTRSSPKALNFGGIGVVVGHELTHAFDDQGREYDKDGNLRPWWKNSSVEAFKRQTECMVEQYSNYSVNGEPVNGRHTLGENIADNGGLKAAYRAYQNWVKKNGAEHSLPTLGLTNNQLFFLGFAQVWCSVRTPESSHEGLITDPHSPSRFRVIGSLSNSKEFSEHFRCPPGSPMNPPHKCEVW

[11] = molecular target: T3, Neprilysin; experiment: Inhibitory activity against endopeptidase enzyme (NEP).
[12] = system: Streptococcus pneumoniae; experiment: In vitro antibacterial activity against Streptococcus pneumoniae 1/1 (penicillin resistant).; type: functional
[13] = system: Mycoplasmoides pneumoniae; experiment: In vitro antibacterial activity against Mycoplasma pneumoniae ATCC 29342.; type: functional
[14] = system: Enterococcus faecium; experiment: In vitro antibacterial activity against Enterococcus faecium vanA E25_1.; type: functional
[15] = system: Enterococcus faecalis; experiment: In vitro antibacterial activity against Enterococcus faecalis ATCC 29212.; type: functional
[16] = system: Pseudomonas aeruginosa; experiment: In vitro antibacterial activity against Pseudomonas aeruginosa ATCC 27853.; type: functional
[17] = system: Staphylococcus aureus; experiment: In vitro antibacterial activity against Staphylococcus aureus ATCC 25923.; type: functional
[18] = system: Escherichia coli; experiment: In vitro antibacterial activity against Escherichia coli ATCC 25922.; type: functional
[19] = system: Chlamydia pneumoniae; experiment: In vitro antibacterial activity against Chlamydia pneumoniae AR-39.; type: functional
[20] = system: Haemophilus influenzae; experiment: In vitro antibacterial activity against Haemophilus influenzae 11.; type: functional
[21] = system: Streptococcus pneumoniae; experiment: In vitro antibacterial activity against Streptococcus pneumoniae ATCC 49619.; type: functional
[22] = system: Stenotrophomonas maltophilia; experiment: In vitro antibacterial activity against Stenotrophomonas maltophilia 1AC739.; type: functional
[23] = system: Bacillus subtilis; experiment: In vitro antibacterial activity against Bacillus subtilis ATCC 585969.; type: functional

| SMILES | IC50 [1] [µM] | MIC [2] [mg/L] | MIC [3] [mg/L] | other results |
| --- | --- | --- | --- | --- |
| CCCC(CC(=O)NO)S(=O)(=O)c1ccccc1 (stereo not given) | 0.16 | 4 (≈ 14.7 µM) | 64 (≈ 236 µM) |  |
| CCCCC(CC(=O)NO)S(=O)(=O)C1CCCCC1 (stereo not given) |  | < 0.25 | 8 (≈ 27.5 µM) | IC50 [4]: 0.054 µM; IC50 [5]: 0.014 µM; IC50 [6]: 1.65 µM; IC50 [7]: > 100 µM; IC50 [8]: 0.29 µM; IC50 [9]: 0.1 µM; IC50 [10]: 78 µM |
| CCCCC(CC(=O)NO)[S+]([O-])c1ccc2ccccc2c1 (stereo not given) | 0.064 | < 0.25 | 2 (≈ 6.26 µM) |  |
| CCCCC(CC(=O)NO)[S+]([O-])c1cccc(OC)c1 (stereo not given) | 0.094 | 0.25 (≈ 0.835 µM) | 4 (≈ 13.4 µM) |  |
| CCCCC(CC(=O)NO)[S+]([O-])c1ccc(OC)cc1 (stereo not given) | 0.099 | < 0.25 | 2 (≈ 6.68 µM) |  |
| CCC(CC(=O)NO)S(=O)(=O)c1ccccc1 (stereo not given) |  | > 64 | > 64 |  |
| CCCCC(CC(=O)NO)S(=O)(=O)c1ccc2ccccc2c1 (stereo not given) | 0.023 | 0.5 (≈ 1.49 µM) | 8 (≈ 23.9 µM) | IC50 [4]: 0.07 µM; IC50 [5]: 0.013 µM; IC50 [7]: 12.4 µM; IC50 [8]: 1.5 µM; IC50 [9]: 0.009 µM; IC50 [11]: 0.5 µM; IC50 [10]: 450 µM |
| CCCCC(CC(=O)NO)S(=O)(=O)c1ccc(NC(C)=O)cc1 (stereo not given) | 0.011 | 1 (≈ 2.92 µM) | 16 (≈ 46.7 µM) |  |
| O=C(CC(c1ccccc1)S(=O)(=O)c1ccccc1)NO (stereo not given) | 0.16 | 8 (≈ 26.2 µM) | 32 (≈ 105 µM) |  |
| O=C(CC(c1ccc2c(c1)OCO2)S(=O)(=O)c1ccccc1)NO (stereo not given) |  | 1 (≈ 2.86 µM) | 16 (≈ 45.8 µM) |  |
| CCCCC(CC(=O)NO)S(=O)(=O)Cc1ccccc1 (stereo not given) | 0.19 | 16 (≈ 53.4 µM) | 128 (≈ 428 µM) |  |
| O=C(CC(c1ccco1)S(=O)(=O)c1ccccc1)NO (stereo not given) |  | 4 (≈ 13.5 µM) | 32 (≈ 108 µM) |  |
| CCCCC[C@H](CC(=O)NO)C(=O)N[C@H](C(=O)N1CCC[C@H]1CO)C(C)C [ACTINONIN] |  | < 0.06 | 1 (≈ 2.59 µM) | MIC [12]: 128 mg/L (≈ 332 µM); MIC [13]: > 64 mg/L; MIC [14]: > 128 mg/L; MIC [15]: > 128 mg/L; MIC [16]: > 128 mg/L; MIC [17]: 32 mg/L (≈ 83 µM); MIC [18]: 64 mg/L (≈ 166 µM); MIC [19]: 4 mg/L (≈ 10.4 µM); MIC [20]: 2 mg/L (≈ 5.19 µM); MIC [21]: 32 mg/L (≈ 83 µM); MIC [22]: 16 mg/L (≈ 41.5 µM); MIC [23]: 8 mg/L (≈ 20.8 µM) |
